From US7442383B2, “Use of xenon for the control of neurological deficits associated with cardiopulmonary bypass” (Protexeon Limited, priority 2002, dated 2008) come the findings set out here.

For data set [1], the system named is rat CPB model. Description: Standardized functional neurologic (neuromotor) testing after CPB. The format is in vivo. As to conditions: for neurologic outcome, difference among groups: 12th postoperative day. An excerpt: The methodology of the CPB model used in the current study has been previously reported (Anesthesiology 2001, 95:1485-91). Briefly, anesthesia was induced in male Sprague-Dawley rats (12-14 weeks, 350-380 gm; Harlan, Indianapolis, Ind.) with 5% isoflurane in oxygen-enriched air in a plastic box. Following orotracheal intubation with a 14-gauge cannula, the lungs were mechanically ventilated (40% O2/balance N2) to maintain a PaCO2 of 36-42 mmHg. During surgical preparation, anesthesia was maintained with 2.0-2.5% isoflurane and the rectal and pericranial temperatures were monitored and servo-controlled at 37.5±0.1° C. (YSI 400 series thermistor and 73ATA Indicating controller; YSI, Yellow Springs, Ohio) with a heating blanket and convective forced-air heating system. The superficial caudal epigastric artery, a branch of a femoral artery, was cannulated with PE-10 tubing for monitoring mean arterial pressure (MAP). During cardiopulmonary bypass (CPB) rats were anesthetized with fentanyl (30 μg/kg, i.v.), midazolam (0.4 mg/kg, i.v.) and atracurium (0.5 mg/kg, i.v.) as a bolus of injection and followed by a continuous infusion of the mixture of three with a syringe pump (2.5 μg/kg/min for fentanyl, 0.03 mg/kg/min for midazolam and 0.08 mg/kg/min for atracurium). Pilot studies had been confirmed that with this anesthetic regimen, the animals had enough depth of anesthesia during CPB.
The CPB circuit (FIG. 2) consisted of a venous reservoir, a peristaltic pump and a membrane oxygenator, all of which were connected via 1.6 mm internal diameter silicone tubing (Tygon®; Cole-Parmer Instrument Co., Vernon Hills, Ill.). The CPB circuit was primed with approximately 40 ml of whole blood obtained prior to the start of the experiment from two heparinized (100IU/rat, i.v.) donor rats (275-320 gm) which were exsanguinated under isoflurane anesthesia. The drained blood traversed a warmed venous reservoir (jacketed with circulating water from a heat pump) to a peristaltic pump (Masterflex®; Cole-Parmer Instrument Co., Vernon Hills, Ill.) to a membrane oxygenator (a modified Cobe Micro® neonatal oxygenator with a surface area of 0.33 m^2; Cobe Cardiovascular, Inc., Arvada, Colo.). A closed-circuit gas delivery system fed the appropriate gas into the oxygenator after which blood was inflsed back into the rat. An in-line flow probe (2N806 flow probe and T208 volume flowmeter; Transonics Systems, Inc., Ithaca, N.Y.) was used to continuously measure CPB flow. Arterial line inflow temperature was maintained at 37.5° C. using a circulating water bath system. The venous oxygen saturation from the venous return line was measured continuously using an Oximetrix® Monitor and Opticath® Catheter (Abbot Laboratories, North Chicago, Ill.). Arterial blood gases were performed using a IL 1306 blood gas analyzer (Instrument Laboratories, Inc., Lexington, Mass.) with hemoglobin determined using an OSM3 Hemoximeter® (Radiometer Inc., Copenhagen, Denmark).
After complete of all surgical procedures as described as above, rats were randomly divided into one of four groups. […] CPB group: rats (n=10) were subjected to 60 min of non-pulsatile CPB with a membrane oxygenator receiving a mixture of 30% O2 and 65% N2. CPB+MK801 group: rats (n=10) received MK801 (0.15 mg/kg, i.v.) 15 min prior to 60 min of CPB with similar concentrations of gases as in group 2. The dose of MK801 was chosen from pilot studies, in which its side effect can be kept at minmal level. CPB+Xenon group: rats (n=10) underwent 60 min of CPB with a membrane oxygenator receiving a mixture of 30% O2 and 60% xenon. […]

In data set [2] the test system is mouse neuronal/glial co-culture. Description: LDH release from neuronal/glial co-culture, temperature variation study. The format is cell-based. Conditions: xenon concentration (% atm). The procedure:
The effects of xenon as a neuroprotectant were investigated at normal body temperature (37° C.) and at a lower temperature (33° C.), for example, as may pertain during CPB. The study was based on measuring LDH release from a mouse neuronal/glial co-culture in accordance with the method described in WO 01/08692 (in the name of Imperial College of Science, Technology and Medicine).
Background: LDH in the medium is a marker of cell lysis.

Data set [3] has as its system rat CPB model. The experiment in a line: Morris water maze neurocognitive testing after CPB. The class given is in vivo. As to conditions: 10 postoperative days; speeds 4.7 to 6.2 inch/sec. An excerpt: The methodology of the CPB model used in the current study has been previously reported (Anesthesiology 2001, 95:1485-91). Briefly, anesthesia was induced in male Sprague-Dawley rats (12-14 weeks, 350-380 gm; Harlan, Indianapolis, Ind.) with 5% isoflurane in oxygen-enriched air in a plastic box. Following orotracheal intubation with a 14-gauge cannula, the lungs were mechanically ventilated (40% O2/balance N2) to maintain a PaCO2 of 36-42 mmHg. During surgical preparation, anesthesia was maintained with 2.0-2.5% isoflurane and the rectal and pericranial temperatures were monitored and servo-controlled at 37.5±0.1° C. (YSI 400 series thermistor and 73ATA Indicating controller; YSI, Yellow Springs, Ohio) with a heating blanket and convective forced-air heating system. […]
The CPB circuit (FIG. 2) consisted of a venous reservoir, a peristaltic pump and a membrane oxygenator, all of which were connected via 1.6 mm internal diameter silicone tubing (Tygon®; Cole-Parmer Instrument Co., Vernon Hills, Ill.). […] The venous oxygen saturation from the venous return line was measured continuously using an Oximetrix® Monitor and Opticath® Catheter (Abbot Laboratories, North Chicago, Ill.). Arterial blood gases were performed using a IL 1306 blood gas analyzer (Instrument Laboratories, Inc., Lexington, Mass.) with hemoglobin determined using an OSM3 Hemoximeter® (Radiometer Inc., Copenhagen, Denmark). […]

Data set [4] concerns rat CPB model. Description: General behavioural changes after emergence from anesthesia. The class given is in vivo. Conditions: MK801 0.15 mg/kg i.v. The procedure: After complete of all surgical procedures as described as above, rats were randomly divided into one of four groups. […] CPB group: rats (n=10) were subjected to 60 min of non-pulsatile CPB with a membrane oxygenator receiving a mixture of 30% O2 and 65% N2. CPB+MK801 group: rats (n=10) received MK801 (0.15 mg/kg, i.v.) 15 min prior to 60 min of CPB with similar concentrations of gases as in group 2. The dose of MK801 was chosen from pilot studies, in which its side effect can be kept at minmal level. CPB+Xenon group: rats (n=10) underwent 60 min of CPB with a membrane oxygenator receiving a mixture of 30% O2 and 60% xenon.
All animals were able to drink and to eat after emergence.

Setting [5] is: 1st postoperative day, CPB group 5.2±1.5, sham 7.6±0.8.
Where [6] appears, read: 3rd postoperative day, CPB group 5.8±1.8, sham 8.3±0.7.

With `[Xe]` [xenon], the “neurologic outcome (functional neurologic score, zero to nine scale, best score=9)” value with rat CPB model [1] (setting [5]) was 8.3±0.5; in the data set with rat CPB model [1] (setting [6]), 8.9±0.2. Besides, in the data set with rat CPB model [1], the “neurologic outcome, difference among groups” value was “no difference”. Besides, the “EC50 for reduction of LDH release” value in data set [2] (33° C.) is on record as 11.5+/−2.0%; in data set [2] (37° C.), 35.9+/−2.2%. Besides, the “swimming speeds, difference among groups” value with rat CPB model [3] is on record as “no significant differences”.

On to `C[C@]12N[C@H](Cc3ccccc31)c1ccccc12` [MK801], for which the “neurologic outcome (functional neurologic score, zero to nine scale, best score=9)” value in the data set on rat CPB model [1] (setting [5]) was found to be 6.2±1.4. Further, the “neurologic outcome (functional neurologic score, zero to nine scale, best score=9)” value in the data set on rat CPB model [1] (setting [6]) was found to be 7.4±1.8. The “neurologic outcome, difference among groups” value in the data set on rat CPB model [1] is given as “no difference”. Also, in the data set on rat CPB model [4], the “duration of behavioural disturbances” value lay in the range of 1 to 2 h; the general behavioural changes result is “hyperactivity, head weaving and related disturbances of motor coordination”. Also, in the data set with rat CPB model [3], the “swimming speeds, difference among groups” value is given as “no significant differences”.
